Test results reported in patent US20110092544A1, “FUNGICIDAL PYRIDINES” (E.I. DU PONT DE nemours and company, priority 2008, published 2011).

Columns and labels:
Type in all cases: in vivo
Septoria tritici = assay: Test C: wheat leaf blotch, preventive spray on wheat seedlings, visual disease rating; conditions: for pest or weed control at 200 ppm: Zymoseptoria tritici, 504 h
In short: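 Wheat seedlings sprayed to run-off with compound in acetone/water plus 250 ppm surfactant at 200 ppm (≈500 g/ha), or 40 ppm where marked; inoculated with Septoria tritici next day. Held saturated at 20 °C for 48 h, then 19 days at 20 °C; disease control rated visually 0–100 versus controls.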

Alternaria solani = assay: Test E: tomato early blight, preventive spray on tomato seedlings, visual disease rating; conditions: for pest or weed control at 200 ppm: Alternaria solani, 168 h
In short: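 Seedlings sprayed to run-off with compound in acetone/water plus 250 ppm Trem 014 (200 ppm ≈ 500 g/ha), inoculated with spores next day. Held 48 h saturated at 27 °C, then 5 days at 20 °C; visual rating 0–100% disease control relative to controls.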

Botrytis cinerea = assay: Test F: tomato botrytis, preventive spray on tomato seedlings, visual disease rating; conditions: for pest or weed control at 200 ppm: Botrytis cinerea, 120 h
In short: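 Tomato seedlings sprayed to run-off with compound suspended in acetone/water (50/50) plus 250 ppm Trem 014, at 200 ppm (≈500 g/ha) or 40 ppm where marked. Inoculated next day with B. cinerea spores, 48 h saturated atmosphere at 20 °C, then 3 days at 24 °C. Visual rating, 0–100% disease control relative to controls.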

[1] = system: Erysiphe graminis f. sp. tritici; assay: Test A: wheat powdery mildew, preventive spray on wheat seedlings, visual disease rating; conditions: for pest or weed control at 200 ppm: Blumeria graminis, 192 h
In short: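 Acetone/water (50/50) suspension with 250 ppm surfactant sprayed to run-off on wheat seedlings (200 ppm ≈ 500 g/ha); inoculated next day with E. graminis spore dust. Incubated 8 days at 20° C, then visually rated 0–100% disease control versus untreated controls; tests at 200 ppm or 40 ppm.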

Septoria nodorum = assay: Test D: wheat glume blotch, preventive spray on wheat seedlings, visual disease rating; conditions: for pest or weed control at 200 ppm: Parastagonospora nodorum, 216 h
In short: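 Compounds in 3% acetone, then 50/50 acetone–water with 250 ppm Trem 014, sprayed to run-off at 200 ppm (500 g/ha; some at 40 ppm) one day before spore inoculation. Held 48 h saturated at 20 °C, then 7 days at 20 °C; visual rating as % disease control vs untreated (0–100).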

[2] = system: Puccinia recondite f. sp. tritici; assay: Test B: wheat leaf rust, preventive spray on wheat seedlings, visual disease rating; conditions: for pest or weed control at 200 ppm: 192 h
In short: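 Wheat seedlings were sprayed to run-off with compound suspension, 200 ppm (≈500 g/ha) or 40 ppm where marked, containing surfactant in acetone/water. Inoculation with Puccinia recondita spores followed one day later, then 24 h in saturated humidity at 20° C and 7 days at 20° C. Disease control was rated visually, 0–100% versus controls.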

Plasmopara viticola = assay: Test H: grape downy mildew, spray after inoculation of grape seedlings, visual disease rating; conditions: for pest or weed control at 200 ppm: Plasmopara viticola, 192 h
Source text: General protocol for preparing test suspensions for Tests A-H: The test compounds were first dissolved in acetone in an amount equal to 3% of the final volume and then suspended at the desired concentration (in ppm) in acetone and purified water (50/50 mix) containing 250 ppm of the surfactant Trem® 014 (polyhydric alcohol esters). The resulting test suspensions were then used in tests A-H. Spraying a 200 ppm test suspension to the point of run-off on the test plants was the equivalent of a rate of 500 g/ha.
Grape seedlings were inoculated with a spore suspension of Plasmopara viticola (the causal agent of grape downy mildew) and incubated in a saturated atmosphere at 20° C. for 24 h. After a short drying period, the test suspension was sprayed to the point of run-off on the grape seedlings, and then moved to a growth chamber at 20° C. for 6 days, after which time the test units were placed back into a saturated atmosphere at 20° C. for 24 h. Upon removal, disease ratings were visually made.
Results for Tests A-H are given in Table A. In the table, a rating of 100 indicates 100% disease control and a rating of 0 indicates no disease control (relative to the controls). A dash (-) indicates no test results. All results are for compounds tested at 200 ppm except where the compound number is followed by “*” which indicates the compound was tested at 40 ppm.

[3] = 200 ppm, 100 = 100% disease control, 0 = no control
[4] = 40 ppm (compound number followed by *)

Structure (SMILES) | Test C rating (% disease control) (Septoria tritici; [3]) [%] | Test E rating (% disease control) (Alternaria solani; [3]) [%] | Test F rating (% disease control) (Botrytis cinerea; [3]) [%] | Test A rating (% disease control) [1, 3] [%] | Test D rating (% disease control) (Septoria nodorum; [3]) [%] | Test B rating (% disease control) [2, 3] [%] | Test H rating (% disease control) (Plasmopara viticola; [3]) [%] | further results
COc1cc(OC)cc(-c2c(C(C)=O)cnc(C)c2-c2ccc(F)cc2)c1 [Compound 12, 1-[4-(3,5-dimethoxyphenyl)-5-(4-fluorophenyl)-6-methyl-3-pyridinyl]ethanone] |  |  |  |  |  |  |  | pest or weed control at 200 ppm (Septoria tritici; [3]): 92%; pest or weed control at 200 ppm (Alternaria solani; [3]): 90%; pest or weed control at 200 ppm (Botrytis cinerea; [3]): 99%; pest or weed control at 200 ppm [1, 3]: 95%; pest or weed control at 200 ppm (Septoria nodorum; [3]): 0%; pest or weed control at 200 ppm [2, 3]: 93%; pest or weed control at 200 ppm (Plasmopara viticola; [3]): 0%
COc1cc(OC)cc(-c2c(C(C)(C)O)cnc(C)c2-c2ccc(F)cc2)c1 [Compound 13, 4-(3,5-dimethoxyphenyl)-5-(4-fluorophenyl)-α,α,6-trimethyl-3-pyridinemethanol] |  |  |  |  |  |  |  | pest or weed control at 200 ppm (Septoria tritici; [3]): 100%; pest or weed control at 200 ppm (Alternaria solani; [3]): 100%; pest or weed control at 200 ppm (Botrytis cinerea; [3]): 99%; pest or weed control at 200 ppm [1, 3]: 96%; pest or weed control at 200 ppm (Septoria nodorum; [3]): 0%; pest or weed control at 200 ppm [2, 3]: 99%; pest or weed control at 200 ppm (Plasmopara viticola; [3]): 0%
CCC(C)(O)c1cnc(C)c(-c2ccc(F)cc2)c1-c1cc(OC)cc(OC)c1 (centres unmarked) [Compound 14] | 99 | 99 | 99 | 97 | 0 | 98 | 0 | 
CCOC(=O)c1cnc(C)c(-c2ccccc2)c1-c1cc(OC)ccc1F [Compound 15] | 7 | 0 | 96 | 82 | 0 | 0 | 0 | 
COc1cc(OC)cc(-c2c(C(C)C)cnc(C)c2-c2ccccc2F)c1 [Compound 21] | 100 | 97 | 98 | 100 | 0 | 99 | 40 | 
CCOC(=O)c1cnc(C)c(-c2ccccc2)c1-c1cc(OC)cc(OC)c1Cl [Compound 25] |  |  |  |  |  |  |  | Test C rating (% disease control) (Septoria tritici; [4]): 0%; Test E rating (% disease control) (Alternaria solani; [4]): 0%; Test F rating (% disease control) (Botrytis cinerea; [4]): 84%; Test A rating (% disease control) [1, 4]: 0%; Test D rating (% disease control) (Septoria nodorum; [4]): 0%; Test B rating (% disease control) [2, 4]: 0%; Test H rating (% disease control) (Plasmopara viticola; [4]): 0%
CCOC(=O)c1cnc(C)c(-c2ccccc2)c1-c1cc(OC)cc(OC)c1F [Compound 26] | 86 | 0 | 98 | 94 | 0 | 68 | 0 | 
CCc1ncc(C(C)=O)c(-c2cc(OC)cc(OC)c2)c1-c1ccccc1 [Compound 27] | 100 | 92 | 99 | 98 | 0 | 80 | 0 | 
